The text below walks through data of patent US8389508B2 (Glaxo Group Limited, priority 2010, dated 2013).

Where a name gives a salt, the structure may show the parent alone. Some results are limits rather than exact numbers.

For data set [1], the target named is T1, human Endothelial Differentiation Gene 1 (EDG1), S1P1 receptor (Homo sapiens, UniProt P21453).
T1 construct: TEV protease site; Gal4-VP16 transcription factor; expressed in transfected cells; host or cells: EDG1-bla/U2OS (Tango GPCR-bla U2OS parental cell line)
The data set is described as follows: S1P1 Assay (Tango EDG1-bla/U2OS beta-lactamase reporter, agonist dose response). The conditions noted are these: EDG1-bla/U2OS cells, blue/green emission ratio, 10 point dose response, free base or salt form; read-out: pEC50 (S1P1 assay) (converted). The data set is classed as cell-based. An outline of the steps: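 U2OS Tango cells with human EDG1 coupled to TEV site/Gal4-VP16 beta-lactamase reporter, serum-starved 24 h, then exposed overnight at 37 °C to 10-point compound dilutions. CCF4-AM FRET substrate 2 h RT; 460/530 nm ratio normalised to agonist and DMSO controls, sigmoidal fit; intrinsic activity relative to a reference compound set at 100%.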

Data set [2] addresses T2, human Endothelial Differentiation G-protein Coupled Receptor 3 (EDG3), S1P3 receptor (Homo sapiens, UniProt Q99500).
T2 construct: expressed in transfected cells; host or cells: GeneBLAzer EDG3-Ga15-NFAT-bla HEK 293T
The data set is described as follows: S1P3 Assay (GeneBLAzer EDG3-Ga15-NFAT-bla HEK 293T beta-lactamase reporter, agonist dose response). The data set is classed as cell-based. The settings on record: EDG3-Ga15-NFAT-bla HEK 293T cells, blue/green emission ratio, 10 point dose response, free base or salt form; read-out: pEC50 (S1P3 assay) (converted). An outline of the steps:
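HEK 293T cells stably expressing human EDG3 with Ga15 and NFAT-beta-lactamase reporter, ~10,000 cells/well, exposed overnight at 37 °C to 10-point compound doses in charcoal-stripped serum medium. CCF4-AM substrate loaded 2 h at room temperature; 460/530 nm ratio normalized to DMSO and agonist controls, sigmoidal fit; intrinsic activity relative to reference agonist maximum (100%).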

The conditions of data set [3]: clinical studies, Kappos et al 2006; cited from earlier work.

T2 sequence (Q99500 whole entry): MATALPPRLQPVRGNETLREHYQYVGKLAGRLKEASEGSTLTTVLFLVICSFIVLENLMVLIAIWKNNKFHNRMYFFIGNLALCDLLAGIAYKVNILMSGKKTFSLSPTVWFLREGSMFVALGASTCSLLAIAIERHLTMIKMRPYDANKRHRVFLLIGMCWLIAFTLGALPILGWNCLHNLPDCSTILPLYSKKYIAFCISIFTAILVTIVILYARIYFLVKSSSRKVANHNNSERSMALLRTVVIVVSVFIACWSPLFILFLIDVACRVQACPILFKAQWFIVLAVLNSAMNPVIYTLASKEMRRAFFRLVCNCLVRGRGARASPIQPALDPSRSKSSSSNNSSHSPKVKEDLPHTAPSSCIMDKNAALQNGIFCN
T1 sequence (P21453 whole entry, the tested form may be a part): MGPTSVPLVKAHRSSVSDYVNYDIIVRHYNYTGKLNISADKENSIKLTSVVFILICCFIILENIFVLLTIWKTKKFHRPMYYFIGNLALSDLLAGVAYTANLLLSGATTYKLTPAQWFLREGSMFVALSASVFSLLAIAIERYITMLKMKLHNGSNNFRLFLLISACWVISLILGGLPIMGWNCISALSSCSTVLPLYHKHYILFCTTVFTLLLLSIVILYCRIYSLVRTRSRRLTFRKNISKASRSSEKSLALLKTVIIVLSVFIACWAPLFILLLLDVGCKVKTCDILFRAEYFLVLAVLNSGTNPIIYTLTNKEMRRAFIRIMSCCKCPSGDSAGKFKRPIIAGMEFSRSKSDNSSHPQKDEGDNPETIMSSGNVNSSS

Regarding `CCc1c(-c2nsc(-c3ccc(CC(C)C)c(C#N)c3)n2)cccc1C1CN(CCCC(=O)O)C1` [Example 104, 4-[3-(3-{5-[3-cyano-4-(2-methylpropyl)phenyl]-1,2,4-thiadiazol-3-yl}-2-ethylphenyl)-1-azetidinyl]butanoic acid trifluoroacetate], the values for the EC50 in data set [1] and in data set [2] were not above 10 nM and more than 10 µM, respectively.
`CCc1c(CC2CCN(CC(=O)O)CC2)cccc1-c1nsc(-c2ccc(OC(C)C)c(Cl)c2)n1` [Example 105, (4-{[3-(5-{3-chloro-4-[(1-methylethyl)oxy]phenyl}-1,2,4-thiadiazol-3-yl)-2-ethylphenyl]methyl}-1-piperidinyl)acetic acid trifluoroacetate]: the EC50 in data set [1] is less than 100 nM; in data set [2], more than 10 µM.
For `CCc1c(CC2CCN(CCC(=O)O)CC2)cccc1-c1nsc(-c2ccc(OC(C)C)c(Cl)c2)n1` [Example 106, 3-(4-{[3-(5-{3-chloro-4-[(1-methylethyl)oxy]phenyl}-1,2,4-thiadiazol-3-yl)-2-ethylphenyl]methyl}-1-piperidinyl)propanoic acid trifluoroacetate], the EC50 was less than 100 nM in data set [1] and more than 3.16 µM in data set [2].
In the case of `CCCCCCCCc1ccc(CCC(N)(CO)CO)cc1` [FTY720], the bradycardia on treatment result in data set [3] was “bradycardia in the first 24 hours of treatment”.
